Calls of active or inactive are those of the source. The rule behind the calls is not given here.

Experiment [1] can be described thus: (§1) Displacement of [3H]EBOB from Wistar rat brain membrane GABA receptor by liquid scintillation counting.
For experiment [2], the species on record is Rattus norvegicus. The experiment is described as §1.
A short description of experiment [3]: (§2) Displacement of [3H]EBOB from housefly head membrane GABA receptor by liquid scintillation counting. Also noted: species or system Musca domestica. A general note: Displacement assays read how much labelled ligand stays bound in the presence of the test substance.
The subject of experiment [4] is Musca domestica. The description is as §2.
The species named for experiment [5] is Rattus norvegicus. The experiment can be described thus: Displacement of [3H]EBOB from GABA receptor in 365 nm ultraviolet light irradiated Wistar rat brain P2 membrane by photoaffinity labeling experiment.
The species entered for experiment [6] is Rattus norvegicus. The experiment is described as follows: Displacement of [3H]EBOB from GABA receptor in 365 nm ultraviolet light irradiated Wistar rat brain P2 membrane by photoaffinity labeling experiment in presence of picrotoxinin measured after membrane washout.
For experiment [7], the species on record is Rattus norvegicus. The experiment can be described thus: Displacement of [3H]EBOB from GABA receptor in Wistar rat brain P2 membrane in presence of fipronil measured after membrane washout. It counts as cell membranes.

For the molecule `COC(=O)CCC#Cc1ccc(C(=O)Oc2ccc(C3(C(F)(F)F)N=N3)cc2[N+](=O)[O-])cc1`, the half-inhibitory concentration (IC50) stood at 1490 nM in experiment [1] and 240 nM in experiment [3]. Also, the Activity entry in experiment [2] and in experiment [4] was “Dose-dependent effect” in each case. The outcome in experiment [5] and in experiment [7] was Active. The outcome in experiment [6] was inactive.
Take `CC(C)(C)CCOC(=O)c1ccc(C#CCCC(=O)O)cc1`: the IC50 in experiment [1] was 88 nM; in experiment [3], 3410 nM.

Usually IC50 stands for the concentration that inhibits the measured activity by half. Low values mean inhibition by little substance, high ones a need for much substance.

For the origin of these results see ChEMBL document CHEMBL1681776, “A photoreactive probe that differentiates the binding sites of noncompetitive GABA receptor antagonists” (Bioorg Med Chem Lett, 2011).
